Earlier results on 7 molecules are cited in US6703367B1, “Methods for treating hot flashes and gynaecomastia” (Praecis Pharmaceuticals Inc., priority 2001, dated 2004).

One data set relates to gynaecomastia. As to conditions: for men in whom gynaecomastia was reduced: middle aged men.
The next data set concerns hot flashes. As to conditions: for reduce hot flashes to: progestin therapy.

Take CLOMIPHENE: in the data set with gynaecomastia (in vivo), the effect on gynaecomastia entry is “unsuccessful”.

In the case of Medthyldopa, the “decrease of hot flashes” value with hot flashes (in vivo) was 30%.

Turning to `CC(=O)[C@@]1(O)CC[C@H]2[C@@H]3C[C@H](C)C4=CC(=O)CC[C@]4(C)[C@H]3CC[C@@]21C` [Medroxyprgesterone], in the data set on hot flashes, the “reduce hot flashes to” value is 75-100%.

In the case of `CC(=O)O[C@]1(C(C)=O)CC[C@H]2[C@@H]3C=C(C)C4=CC(=O)CC[C@]4(C)[C@H]3CC[C@@]21C` [Megestrol acetate], the “reduce hot flashes to” value in the data set on hot flashes was 25-85%.

In the case of clonidine, the “effect on hot flashes, orally administered” value in the data set on hot flashes (oral) is listed as “varied”. In the data set on hot flashes (transdermal, hot flashes due to Tamoxifen), the “effect on hot flashes, administered transdermally” value is “reduced the frequency and severity of hot flashes”.

For Tamoxifen, in the data set on gynaecomastia, the “men in whom gynaecomastia was reduced” value is “approximately 70%”.

Take `C#C[C@]1(O)CC[C@H]2[C@@H]3CCC4=Cc5oncc5C[C@]4(C)[C@H]3CC[C@@]21C` [DANAZOL]: the “men in whom gynaecomastia was reduced” value in the data set on gynaecomastia was “approximately 70%”.
